These results are taken from US11814356B1, “Salt of cabozantinib” (Apotex Inc., priority 2023, dated 2023).

SMILES strings stand for the structures.

The nature of data set [1]: PXRD form stability of uncapped samples in a stability chamber. It counts as physicochemical. The protocol: Cabozantinib acesulfamate Form APO-I can be characterized by a PXRD diffractogram comprising, among other peaks, characteristic peaks, expressed in degrees 2θ (±0.2°), at 9.5°, 11.2° and 19.7°. Preferably, the PXRD diffractogram further comprises at least three peaks, expressed in degrees 2θ (±0.2°), selected from the group consisting of 9.1°, 10.2°, 12.7°, 15.9°, 17.4°, and 18.1°. More preferably, the PXRD diffractogram further comprises peaks, expressed in degrees 2θ (±0.2°), at 9.1°, 10.2°, 12.7°, 15.9°, 17.4°, and 18.1°.
PXRD diffractograms were recorded on a Bruker D8 Discover powder X-ray diffractometer (Bruker AXS LLC, Karlsruhe, Germany). The sample holder was oscillated along x and y axes during the measurement. The generator was a Incoatec Microfocus Source (IμS) Cu tube (λ=1.54060 Å) with a voltage of 50 kV and current of 1.00 mA, using a divergence slit of 0.1 mm and collimator of 2.0 mm. For each sample, one frame was collected using a still scan with a PILATUS3 R 100K-A detector at the distance of 294.2 mm from the sample. Raw data were evaluated using the program DIFFRAC.EVA (Bruker AXS LLC, Karlsruhe, Germany).

The conditions of data set [2]: pH-dependent; at a pH>3; cited from earlier work.
The conditions of data set [3]: cited from earlier work.

For the compound `CC1=CC(=O)NS(=O)(=O)O1.COc1cc2nccc(Oc3ccc(NC(=O)C4(C(=O)Nc5ccc(F)cc5)CC4)cc3)c2cc1OC` [cabozantinib acesulfamate Form APO-I, Cabozantinib Acesulfamate Form APO-I], in data set [1] (high temperature and high humidity), the form stability entry was “form stability”. In addition, the “change in the crystalline form (PXRD)” value in data set [1] (uncapped samples, 40° C./75% RH stability chamber, at least 4 weeks) is listed as “no change in the crystalline form occurred”.

Regarding `COc1cc2nccc(Oc3ccc(NC(=O)C4(C(=O)Nc5ccc(F)cc5)CC4)cc3)c2cc1OC` [cabozantinib, N-(4-(6,7-dimethoxyquinolin-4-yloxy)phenyl)-N′-(4-fluorophenyl)cyclopropane-1,1-dicarboxamide], in data set [2], the aqueous solubility entry was “very low solubility”. Further, the permeability result in data set [3] is “high permeability”.
